From ChEMBL document CHEMBL3885861, “Open TG-GATES”

Species on record: Rattus norvegicus
Experiment: Open TG-GATES - Regimen: Daily Repeat
Type: toxicity, organism-based, Sprague-Dawley
Parameters: regimen Daily Repeat, gender Male, age 6 weeks
Details: in vivo, po, route gavage; for APTT / Bas / Eos / Fbg / Hb / Ht / Lym / MCH / MCHC / MCV / Mono / Neu / PT / Plat / RBC / Ret / WBC: tissue Blood; for KIDNEY_L / KIDNEY_R / KIDNEY_TOTAL: tissue Kidney; for LIVER: tissue Liver; for A/G / ALP / ALT / AST / BUN / CRE / Ca / Cl / DBIL / GLC / IP / K / LDH / Na / PL / RALB / TBIL / TC / TG / TP / gamma-GTP: tissue Plasma
[1] = 50 mg/kg, 72 h, dose level Middle, time 3 day
[2] = 50 mg/kg, […], dose level Middle, time 7 day
[3] = 50 mg/kg, […], dose level Middle, time 14 day
[4] = 50 mg/kg, […], dose level Middle, time 28 day
[5] = 150 mg/kg, 72 h, dose level High, time 3 day
[6] = 150 mg/kg, […], dose level High, time 7 day
[7] = 150 mg/kg, […], dose level High, time 14 day
[8] = 150 mg/kg, […], dose level High, time 28 day

Nc1nc(N)c2nc(-c3ccccc3)c(N)nc2n1
TERMINAL_BW [1]: 241.1 g
APTT [1]: 15.9 s
Bas [1]: 0%
Eos [1]: 1%
Fbg [1]: 334.2 mg/dL
Hb [1]: 13.9 g/dL
Ht [1]: 40.9%
Lym [1]: 74.4%
MCH [1]: 21.2 pg
MCHC [1]: 34.2%
MCV [1]: 62.1 fL
Mono [1]: 2.8%
Neu [1]: 21.4%
PT [1]: 13.8 s
Plat [1]: 119.3 x10_4/uL
RBC [1]: 658 x10_4/ul
Ret [1]: 5.6%
WBC [1]: 93.5 x10_2/uL
KIDNEY_L [1]: 1.1 g
KIDNEY_R [1]: 1.1 g
KIDNEY_TOTAL [1]: 2.2 g
LIVER [1]: 11.5 g
A/G [1]: 0.9
ALP [1]: 1521.8 IU/L
ALT [1]: 42.2 IU/L
AST [1]: 65.2 IU/L
BUN [1]: 15.2 mg/dL
CRE [1]: 0.2 mg/dL
Ca [1]: 10.9 mg/dL
Cl [1]: 105.4 meq/L
DBIL [1]: 0.008 mg/dL
GLC [1]: 175 mg/dL
IP [1]: 8.2 mg/dL
K [1]: 3.9 meq/L
LDH [1]: 56.2 IU/L
Na [1]: 143.6 meq/L
PL [1]: 166.2 mg/dL
RALB [1]: 2.6 g/dL
TBIL [1]: 0.04 mg/dL
TC [1]: 85 mg/dL
TG [1]: 126.2 mg/dL
TP [1]: 5.5 g/dL
gamma-GTP [1]: 1 IU/L
TERMINAL_BW [2]: 280.2 g
TERMINAL_BW [3]: 333.9 g
TERMINAL_BW [4]: 402.9 g
APTT [2]: 16.3 s
Bas [2]: 0%
Eos [2]: 1%
Fbg [2]: 335.4 mg/dL
Hb [2]: 13.8 g/dL
Ht [2]: 42.3%
Lym [2]: 77.8%
MCH [2]: 20.2 pg
MCHC [2]: 32.6%
MCV [2]: 62.1 fL
Mono [2]: 2%
Neu [2]: 18.6%
PT [2]: 13.9 s
Plat [2]: 134.1 x10_4/uL
RBC [2]: 680.6 x10_4/ul
Ret [2]: 5.3%
WBC [2]: 121.8 x10_2/uL
APTT [3]: 18.2 s
Bas [3]: 0.2%
Eos [3]: 1%
Fbg [3]: 312.2 mg/dL
Hb [3]: 14.5 g/dL
Ht [3]: 44.6%
Lym [3]: 80.6%
MCH [3]: 19.6 pg
MCHC [3]: 32.6%
MCV [3]: 59.9 fL
Mono [3]: 2.6%
Neu [3]: 15.4%
PT [3]: 12.9 s
Plat [3]: 127.2 x10_4/uL
RBC [3]: 744.2 x10_4/ul
Ret [3]: 4.2%
WBC [3]: 93 x10_2/uL
APTT [4]: 18.2 s
Bas [4]: 0.4%
Eos [4]: 1.4%
Fbg [4]: 283.2 mg/dL
Hb [4]: 15.4 g/dL
Ht [4]: 45.4%
Lym [4]: 80%
MCH [4]: 19.1 pg
MCHC [4]: 33.9%
MCV [4]: 56.2 fL
Mono [4]: 1.6%
Neu [4]: 16.2%
PT [4]: 13.5 s
Plat [4]: 105.5 x10_4/uL
RBC [4]: 807 x10_4/ul
Ret [4]: 2.4%
WBC [4]: 101.1 x10_2/uL
KIDNEY_L [2]: 1.2 g
KIDNEY_R [2]: 1.2 g
KIDNEY_TOTAL [2]: 2.4 g
KIDNEY_L [3]: 1.3 g
KIDNEY_R [3]: 1.3 g
KIDNEY_TOTAL [3]: 2.6 g
KIDNEY_L [4]: 1.4 g
KIDNEY_R [4]: 1.4 g
KIDNEY_TOTAL [4]: 2.8 g
LIVER [2]: 12.7 g
LIVER [3]: 14.7 g
LIVER [4]: 15.8 g
A/G [2]: 0.9
ALP [2]: 1449.6 IU/L
ALT [2]: 46.8 IU/L
AST [2]: 66.6 IU/L
BUN [2]: 17.6 mg/dL
CRE [2]: 0.2 mg/dL
Ca [2]: 11 mg/dL
Cl [2]: 106 meq/L
DBIL [2]: 0.012 mg/dL
GLC [2]: 179 mg/dL
IP [2]: 7.7 mg/dL
K [2]: 4.3 meq/L
LDH [2]: 60 IU/L
Na [2]: 142.4 meq/L
PL [2]: 154.6 mg/dL
RALB [2]: 2.6 g/dL
TBIL [2]: 0.07 mg/dL
TC [2]: 77.2 mg/dL
TG [2]: 128.2 mg/dL
TP [2]: 5.5 g/dL
gamma-GTP [2]: 1.2 IU/L
A/G [3]: 0.9
ALP [3]: 1311.6 IU/L
ALT [3]: 43.2 IU/L
AST [3]: 64.2 IU/L
BUN [3]: 18 mg/dL
CRE [3]: 0.2 mg/dL
Ca [3]: 10.6 mg/dL
Cl [3]: 104.8 meq/L
DBIL [3]: 0.014 mg/dL
GLC [3]: 191.8 mg/dL
IP [3]: 8.1 mg/dL
K [3]: 3.7 meq/L
LDH [3]: 69.6 IU/L
Na [3]: 144.4 meq/L
PL [3]: 149.2 mg/dL
RALB [3]: 2.7 g/dL
TBIL [3]: 0.07 mg/dL
TC [3]: 70.2 mg/dL
TG [3]: 137 mg/dL
TP [3]: 5.9 g/dL
gamma-GTP [3]: 1 IU/L
A/G [4]: 0.8
ALP [4]: 1251 IU/L
ALT [4]: 39.2 IU/L
AST [4]: 62.4 IU/L
BUN [4]: 17.6 mg/dL
CRE [4]: 0.2 mg/dL
Ca [4]: 10.7 mg/dL
Cl [4]: 104.2 meq/L
DBIL [4]: 0.014 mg/dL
GLC [4]: 188.2 mg/dL
IP [4]: 6.7 mg/dL
K [4]: 3.8 meq/L
LDH [4]: 52.6 IU/L
Na [4]: 143.6 meq/L
PL [4]: 139.2 mg/dL
RALB [4]: 2.7 g/dL
TBIL [4]: 0.06 mg/dL
TC [4]: 64.6 mg/dL
TG [4]: 154 mg/dL
TP [4]: 6.1 g/dL
gamma-GTP [4]: 1 IU/L
TERMINAL_BW [5]: 243.7 g
APTT [5]: 16.1 s
Bas [5]: 0%
Eos [5]: 1%
Fbg [5]: 366.6 mg/dL
Hb [5]: 13.8 g/dL
Ht [5]: 40.7%
Lym [5]: 76.6%
MCH [5]: 21 pg
MCHC [5]: 33.8%
MCV [5]: 62 fL
Mono [5]: 2.8%
Neu [5]: 18.8%
PT [5]: 14 s
Plat [5]: 131.8 x10_4/uL
RBC [5]: 657.6 x10_4/ul
Ret [5]: 5.1%
WBC [5]: 90.9 x10_2/uL
KIDNEY_L [5]: 1 g
KIDNEY_R [5]: 1.1 g
KIDNEY_TOTAL [5]: 2.1 g
LIVER [5]: 11.3 g
A/G [5]: 0.9
ALP [5]: 1846.8 IU/L
ALT [5]: 44 IU/L
AST [5]: 67.2 IU/L
BUN [5]: 17.6 mg/dL
CRE [5]: 0.2 mg/dL
Ca [5]: 11.1 mg/dL
Cl [5]: 105.8 meq/L
DBIL [5]: 0.008 mg/dL
GLC [5]: 180.6 mg/dL
IP [5]: 7.9 mg/dL
K [5]: 3.9 meq/L
LDH [5]: 59 IU/L
Na [5]: 143.6 meq/L
PL [5]: 171 mg/dL
RALB [5]: 2.6 g/dL
TBIL [5]: 0.032 mg/dL
TC [5]: 90.6 mg/dL
TG [5]: 120.8 mg/dL
TP [5]: 5.6 g/dL
gamma-GTP [5]: 1 IU/L
TERMINAL_BW [6]: 274.8 g
TERMINAL_BW [7]: 323.6 g
TERMINAL_BW [8]: 378.7 g
APTT [6]: 16.4 s
Bas [6]: 0.2%
Eos [6]: 1%
Fbg [6]: 354.2 mg/dL
Hb [6]: 13.5 g/dL
Ht [6]: 41.1%
Lym [6]: 78.2%
MCH [6]: 20.1 pg
MCHC [6]: 32.8%
MCV [6]: 61.2 fL
Mono [6]: 2.4%
Neu [6]: 18.2%
PT [6]: 14.1 s
Plat [6]: 132.7 x10_4/uL
RBC [6]: 672.4 x10_4/ul
Ret [6]: 5.4%
WBC [6]: 114.8 x10_2/uL
APTT [7]: 20.2 s
Bas [7]: 0%
Eos [7]: 1%
Fbg [7]: 329.6 mg/dL
Hb [7]: 14.2 g/dL
Ht [7]: 43.2%
Lym [7]: 77.4%
MCH [7]: 19.5 pg
MCHC [7]: 33%
MCV [7]: 59.1 fL
Mono [7]: 2.2%
Neu [7]: 18.8%
PT [7]: 13 s
Plat [7]: 113.5 x10_4/uL
RBC [7]: 730.6 x10_4/ul
Ret [7]: 3.3%
WBC [7]: 94.3 x10_2/uL
APTT [8]: 18.6 s
Bas [8]: 0.4%
Eos [8]: 1%
Fbg [8]: 320 mg/dL
Hb [8]: 15 g/dL
Ht [8]: 44.1%
Lym [8]: 78.8%
MCH [8]: 18.6 pg
MCHC [8]: 33.9%
MCV [8]: 54.9 fL
Mono [8]: 2.2%
Neu [8]: 16.8%
PT [8]: 13.3 s
Plat [8]: 127.8 x10_4/uL
RBC [8]: 803.2 x10_4/ul
Ret [8]: 2.1%
WBC [8]: 110.6 x10_2/uL
KIDNEY_L [6]: 1.3 g
KIDNEY_R [6]: 1.3 g
KIDNEY_TOTAL [6]: 2.6 g
KIDNEY_L [7]: 1.4 g
KIDNEY_R [7]: 1.4 g
KIDNEY_TOTAL [7]: 2.8 g
KIDNEY_L [8]: 1.7 g
KIDNEY_R [8]: 1.7 g
KIDNEY_TOTAL [8]: 3.4 g
LIVER [6]: 12.6 g
LIVER [7]: 13.2 g
LIVER [8]: 14.1 g
A/G [6]: 0.9
ALP [6]: 1286 IU/L
ALT [6]: 41.2 IU/L
AST [6]: 63.2 IU/L
BUN [6]: 18.8 mg/dL
CRE [6]: 0.2 mg/dL
Ca [6]: 11 mg/dL
Cl [6]: 104.2 meq/L
DBIL [6]: 0.014 mg/dL
GLC [6]: 188 mg/dL
IP [6]: 7.7 mg/dL
K [6]: 4 meq/L
LDH [6]: 62 IU/L
Na [6]: 143 meq/L
PL [6]: 149.6 mg/dL
RALB [6]: 2.6 g/dL
TBIL [6]: 0.072 mg/dL
TC [6]: 77 mg/dL
TG [6]: 126.8 mg/dL
TP [6]: 5.6 g/dL
gamma-GTP [6]: 1.2 IU/L
A/G [7]: 0.8
ALP [7]: 1273.4 IU/L
ALT [7]: 41.6 IU/L
AST [7]: 66.4 IU/L
BUN [7]: 21.4 mg/dL
CRE [7]: 0.3 mg/dL
Ca [7]: 10.4 mg/dL
Cl [7]: 105.8 meq/L
DBIL [7]: 0.012 mg/dL
GLC [7]: 185.2 mg/dL
IP [7]: 7.5 mg/dL
K [7]: 3.7 meq/L
LDH [7]: 58.2 IU/L
Na [7]: 145 meq/L
PL [7]: 143.2 mg/dL
RALB [7]: 2.7 g/dL
TBIL [7]: 0.07 mg/dL
TC [7]: 75 mg/dL
TG [7]: 101.6 mg/dL
TP [7]: 5.9 g/dL
gamma-GTP [7]: 1.2 IU/L
A/G [8]: 0.8
ALP [8]: 1120 IU/L
ALT [8]: 41.8 IU/L
AST [8]: 65.6 IU/L
BUN [8]: 21.4 mg/dL
CRE [8]: 0.3 mg/dL
Ca [8]: 10.7 mg/dL
Cl [8]: 106 meq/L
DBIL [8]: 0.008 mg/dL
GLC [8]: 178.2 mg/dL
IP [8]: 6.7 mg/dL
K [8]: 3.7 meq/L
LDH [8]: 44.6 IU/L
Na [8]: 144.8 meq/L
PL [8]: 160.4 mg/dL
RALB [8]: 2.7 g/dL
TBIL [8]: 0.064 mg/dL
TC [8]: 85.2 mg/dL
TG [8]: 106.2 mg/dL
TP [8]: 6.1 g/dL
gamma-GTP [8]: 1.4 IU/L
